What was measured:
[1] = test system: SKBR3 (PI3Kα-Wild Type) cell line; assay: HTRF phospho-AKT(S473) cell assay in SKBR3 cells; type: cell-based, human
Outline: (§1)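 T47D: RPMI + 10% FBS + 0.2 units/mL insulin, top 5 μM. SKBR3: McCoy's 5A + 10% FBS, top 10 μM, 70 ng/ml PDGF-BB last 15 min. Both: 12-pt 1:3, 2 h, 37° C, max 0.5% DMSO; HTRF pAKT(S473); IC50.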

[2] = test system: T47D (PI3Kα-H1047R) cell line; assay: HTRF phospho-AKT(S473) cell assay in T47D cells; type: cell-based, human
Outline: as §1

[3] = Homo sapiens, SK-BR-3; HTRF phospho-AKT(S473), SKBR3 (PI3Kα-Wild Type) cells, 2 hours compound incubation, PDGF-BB stimulated
[4] = Homo sapiens; HTRF phospho-AKT(S473), T47D (PI3Kα-H1047R) cells, 2 hours compound incubation
[5] = Homo sapiens, SK-BR-3; SKBR3 (PI3Kα-Wild Type) cells, HTRF phospho-AKT(S473), 2 hours compound incubation, PDGF-BB stimulated
[6] = Homo sapiens; T47D (PI3Kα-H1047R) cells, HTRF phospho-AKT(S473), 2 hours compound incubation

## Cc1cc([C@@H](C)Nc2ccc(Cl)nc2C(=O)NS(C)(=O)=O)c2nc(N3CC[C@@H](Oc4cnc(C)cn4)C3)n(C)c(=O)c2c1 [Compound 672, 6-chloro-3-(((R)-1-(3,6-dimethyl-2-((R)-3-((5-methylpyrazin-2-yl)oxy)pyrrolidin-1-yl)-4-oxo-3,4-dihydroquinazolin-8-yl)ethyl)amino)-N-(methylsulfonyl) picolinamide]
[1]; [3]
  IC50: 1000 to 5000 nM
[2]; [4]
  IC50: < 250 nM

## Cc1cc([C@@H](C)Nc2ccc(Cl)nc2C(=O)NS(C)(=O)=O)c2nc(N3CC[C@@H](Oc4ccnn4C)C3)n(C)c(=O)c2c1 [Compound 352, 6-chloro-3-(((R)-1-(3,6-dimethyl-2-((R)-3-((1-methyl-1H-pyrazol-5-yl)oxy)pyrrolidin-1-yl)-4-oxo-3,4-dihydroquinazolin-8-yl)ethyl)amino)-N-(methylsulfonyl) picolinamide]
[1]; [5]
  IC50: 1000 to 5000 nM
[2]; [6]
  IC50: < 250 nM

## Cc1cc([C@@H](C)Nc2ccc(Cl)nc2C(=O)NS(C)(=O)=O)c2nc(N3CCC(c4ccn(C5COC5)n4)CC3)n(C)c(=O)c2c1 [Compound 447, (R)-6-chloro-3-((1-(3,6-dimethyl-2-(4-(1-(oxetan-3-yl)-1H-pyrazol-3-yl)piperidin-1-yl)-4-oxo-3,4-dihydroquinazolin-8-yl)ethyl)amino)-N-(methylsulfonyl) picolinamide]
[1]; [3]
  IC50: 1000 to 5000 nM
[2]; [4]
  IC50: < 250 nM

## C[C@@H](Nc1ccc(Cl)nc1C(=O)NS(C)(=O)=O)c1cc(F)cc2c(=O)n(C)c(N3C[C@@H]4[C@H](C3)[C@H]4c3ccnn3C)nc12 [Compound 374, 6-chloro-3-(((R)-1-(6-fluoro-3-methyl-2-((1R,5S,6R)-6-(1-methyl-1H-pyrazol-5-yl)-3-azabicyclo[3.1.0]hexan-3-yl)-4-oxo-3,4-dihydroquinazolin-8-yl)ethyl)amino)-N-(methylsulfonyl) picolinamide]
[1]; [5]
  IC50: 1000 to 5000 nM
[2]; [6]
  IC50: < 250 nM

## Cc1cc([C@@H](C)Nc2ccc(Cl)nc2C(=O)NS(C)(=O)=O)c2nc(N3C[C@H]4C[C@@H]3CN4c3cnc(C)nc3)n(C)c(=O)c2c1 [Compound 592, 6-chloro-3-(((R)-1-(3,6-dimethyl-2-((1R,4R)-5-(2-methylpyrimidin-5-yl)-2,5-diazabicyclo [2.2.1]heptan-2-yl)-4-oxo-3,4-dihydroquinazolin-8-yl)ethyl)amino)-N-(methylsulfonyl) picolinamide]
[1]; [3]
  IC50: ≥ 5000 nM
[2]; [4]
  IC50: 500 to 1000 nM

## Cc1cc([C@@H](C)Nc2ccc(Cl)nc2C(=O)NS(C)(=O)=O)c2nc(N3CC[C@H](Oc4ccc(F)cn4)C3)n(C)c(=O)c2c1 [Compound 513, 6-chloro-3-(((R)-1-(2-((S)-3-((5-fluoropyridin-2-yl)oxy)pyrrolidin-1-yl)-3,6-dimethyl-4-oxo-3,4-dihydroquinazolin-8-yl)ethyl)amino)-N-(methylsulfonyl) picolinamide]
[1]; [3]
  IC50: ≥ 5000 nM
[2]; [4]
  IC50: 250 to 500 nM

## Cc1cc([C@@H](C)Nc2ccc(Cl)nc2C(=O)NS(C)(=O)=O)c2nc(N3CCC(c4ccnn4C4CC4)CC3)n(C)c(=O)c2c1 [Compound 501, (R)-6-chloro-3-((1-(2-(4-(1-cyclopropyl-1H-pyrazol-5-yl)piperidin-1-yl)-3,6-dimethyl-4-oxo-3,4-dihydroquinazolin-8-yl)ethyl)amino)-N-(methylsulfonyl) picolinamide]
[1]; [3]
  IC50: 1000 to 5000 nM
[2]; [4]
  IC50: < 250 nM

## Cc1cc([C@@H](C)Nc2ccc(Cl)nc2C(=O)NS(=O)(=O)C2COC2)c2nc(N3Cc4cn(-c5ccccc5C)nc4C3)n(C)c(=O)c2c1 [Compound 628, (R)-6-chloro-3-((1-(3,6-dimethyl-4-oxo-2-(2-(o-tolyl)-2,6-dihydropyrrolo[3,4-c]pyrazol-5(4H)-yl)-3,4-dihydroquinazolin-8-yl)ethyl)amino)-N-(oxetan-3-ylsulfonyl)picolinamide]
[1]; [3]
  IC50: ≥ 5000 nM
[2]; [4]
  IC50: 250 to 500 nM

## C[C@@H](Nc1ccc(Cl)nc1C(=O)NS(C)(=O)=O)c1cc(F)cc2c(=O)n(C)c(-c3ccc4nn(C)cc4c3)nc12 [Compound 805, (R)-6-chloro-3-((1-(6-fluoro-3-methyl-2-(2-methyl-2H-indazol-5-yl)-4-oxo-3,4-dihydroquinazolin-8-yl)ethyl)amino)-N-(methylsulfonyl) picolinamide]
[1]; [3]
  IC50: 1000 to 5000 nM
[2]; [4]
  IC50: 250 to 500 nM

## Cc1cc([C@@H](C)Nc2ccc(Cl)nc2C(=O)NS(C)(=O)=O)c2nc(N3CCC(c4nn(C)cc4Cl)CC3)n(C)c(=O)c2c1 [Compound 702, (R)-6-chloro-3-((1-(2-(4-(4-chloro-1-methyl-1H-pyrazol-3-yl)piperidin-1-yl)-3,6-dimethyl-4-oxo-3,4-dihydroquinazolin-8-yl)ethyl)amino)-N-(methylsulfonyl) picolinamide]
[1]; [3]
  IC50: ≥ 5000 nM
[2]; [4]
  IC50: 250 to 500 nM

## CCn1cc(F)c(C2CCN(c3nc4c([C@@H](C)Nc5ccc(Cl)nc5C(=O)NS(C)(=O)=O)cc(C)cc4c(=O)n3C)CC2)n1 [Compound 758, (R)-6-chloro-3-((1-(2-(4-(1-ethyl-4-fluoro-1H-pyrazol-3-yl)piperidin-1-yl)-3,6-dimethyl-4-oxo-3,4-dihydroquinazolin-8-yl)ethyl)amino)-N-(methylsulfonyl) picolinamide]
[1]; [3]
  IC50: ≥ 5000 nM
[2]; [4]
  IC50: 250 to 500 nM

## Cc1cc([C@@H](C)Nc2ccc(Cl)nc2C(=O)NS(C)(=O)=O)c2nc(N3Cc4cc(F)cnc4C3)n(C)c(=O)c2c1 [Compound 225, (R)-6-chloro-3-((1-(2-(3-fluoro-5,7-dihydro-6H-pyrrolo[3,4-b]pyridin-6-yl)-3,6-dimethyl-4-oxo-3,4-dihydroquinazolin-8-yl)ethyl)amino)-N-(methylsulfonyl) picolinamide]
[1]; [5]
  IC50: 1000 to 5000 nM
[2]; [6]
  IC50: < 250 nM

## Cc1cc([C@@H](C)Nc2ccc(Cl)nc2C(=O)NS(C)(=O)=O)c2nc(N3C[C@@H]4[C@H](C3)[C@H]4c3ccn(C)n3)n(C)c(=O)c2c1 [Compound 295, 6-chloro-3-(((R)-1-(3,6-dimethyl-2-((1R,5S,6R)-6-(1-methyl-1H-pyrazol-3-yl)-3-azabicyclo[3.1.0]hexan-3-yl)-4-oxo-3,4-dihydroquinazolin-8-yl)ethyl)amino)-N-(methylsulfonyl) picolinamide]
[1]; [5]
  IC50: 1000 to 5000 nM
[2]; [6]
  IC50: < 250 nM

## Cc1cc([C@@H](C)Nc2ccc(Cl)nc2C(=O)NS(C)(=O)=O)c2nc(N3CCN(c4cc(F)cnc4C)CC3)n(C)c(=O)c2c1 [Compound 730, (R)-6-chloro-3-((1-(2-(4-(5-fluoro-2-methylpyridin-3-yl)piperazin-1-yl)-3,6-dimethyl-4-oxo-3,4-dihydroquinazolin-8-yl)ethyl)amino)-N-(methylsulfonyl) picolinamide]
[1]; [3]
  IC50: 1000 to 5000 nM
[2]; [4]
  IC50: 250 to 500 nM

## Cc1cc([C@@H](C)Nc2ccc(Cl)nc2C(=O)NS(C)(=O)=O)c2nc(N3C[C@@H]4[C@H](C3)[C@H]4c3cnccn3)n(C)c(=O)c2c1 [Compound 439, 6-chloro-3-(((R)-1-(3,6-dimethyl-4-oxo-2-((1R,5S,6R)-6-(pyrazin-2-yl)-3-azabicyclo[3.1.0]hexan-3-yl)-3,4-dihydroquinazolin-8-yl)ethyl)amino)-N-(methylsulfonyl) picolinamide]
[1]; [5]
  IC50: 1000 to 5000 nM
[2]; [6]
  IC50: < 250 nM

— patent US12281122B1, “PI3K inhibitors” (Cogent Biosciences, Inc., priority 2023, dated 2025)
